Source: PubChem BioAssay (NCI)
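1) Cells in 96-well plates. 2) Compound, 48 h, 5 concentrations. 3) Linear interpolation between surrounding doses. 4) Unreached endpoint = highest concentration. The concentration for 50% growth inhibition is given as GI50. TGI: total growth inhibition.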 Active and inactive are the calls of the source. Cut-off read from the data, not from the text of the source: active = GI50 below about 0.43 µM; inactive = the rest.

Tests used:
Assay in all cases: NCI-60 cell line screen, 48 h
[1] = tested on: 786-0 renal
[2] = tested on: A498 renal
[3] = tested on: A549 NSCLC
[4] = tested on: ACHN renal
[5] = tested on: CAKI-1 renal
[6] = tested on: CCRF-CEM leukemia
[7] = tested on: COLO 205 colon
[8] = tested on: DMS 114 small cell lung
[9] = tested on: DMS 273 small cell lung
[10] = tested on: EKVX NSCLC
[11] = tested on: HCC-2998 colon
[12] = tested on: HCT-116 colon
[13] = tested on: HCT-15 colon
[14] = tested on: HL-60(TB) leukemia
[15] = tested on: HOP-18 NSCLC
[16] = tested on: HOP-62 NSCLC
[17] = tested on: HOP-92 NSCLC
[18] = tested on: HT29 colon
[19] = tested on: IGROV1 ovarian
[20] = tested on: K-562 leukemia
[21] = tested on: KM12 colon
[22] = tested on: KM20L2 colon
[23] = tested on: LOX IMVI melanoma
[24] = tested on: LXFL 529 NSCLC
[25] = tested on: M14 melanoma
[26] = tested on: M19-MEL melanoma
[27] = tested on: MALME-3M melanoma
[28] = tested on: MOLT-4 leukemia
[29] = tested on: NCI-H226 lung
[30] = tested on: NCI-H23 lung
[31] = tested on: NCI-H460 lung
[32] = tested on: NCI-H522 lung
[33] = tested on: OVCAR-3 ovarian
[34] = tested on: OVCAR-4 ovarian
[35] = tested on: OVCAR-5 ovarian
[36] = tested on: OVCAR-8 ovarian
[37] = tested on: RPMI-8226 leukemia
[38] = tested on: RXF 393 renal
[39] = tested on: SF-268 CNS
[40] = tested on: SF-295 CNS
[41] = tested on: SF-539 CNS
[42] = tested on: SK-MEL-2 melanoma
[43] = tested on: SK-MEL-28 melanoma
[44] = tested on: SK-MEL-5 melanoma
[45] = tested on: SK-OV-3 ovarian
[46] = tested on: SN12C renal
[47] = tested on: SNB-19 CNS
[48] = tested on: SNB-75 CNS
[49] = tested on: SNB-78 CNS
[50] = tested on: SW-620 colon
[51] = tested on: TK-10 renal
[52] = tested on: U251 CNS
[53] = tested on: UACC-257 melanoma
[54] = tested on: UACC-62 melanoma
[55] = tested on: UO-31 renal
[56] = tested on: XF 498 CNS

What does the source list for `O=[N+]([O-])c1ccc2c(c1)[O][Sn][O]2`?
GI50 [1]: 139 µg/mL; TGI [1]: > 150 µg/mL; GI50 [2]: > 150 µg/mL; TGI [2]: > 150 µg/mL; GI50 [3]: > 150 µg/mL; TGI [3]: > 150 µg/mL; GI50 [4]: 139 µg/mL; TGI [4]: > 150 µg/mL; GI50 [5]: 104 µg/mL; TGI [5]: > 150 µg/mL; GI50 [6]: 17.6 µg/mL; TGI [6]: > 150 µg/mL; GI50 [7]: 62.5 µg/mL; TGI [7]: > 150 µg/mL; GI50 [8]: 66.2 µg/mL; TGI [8]: > 150 µg/mL; GI50 [9]: 18.8 µg/mL; TGI [9]: > 150 µg/mL; GI50 [10]: > 150 µg/mL; TGI [10]: > 150 µg/mL; GI50 [11]: > 150 µg/mL; TGI [11]: > 150 µg/mL; GI50 [12]: 45.3 µg/mL; TGI [12]: > 150 µg/mL; GI50 [13]: 16.8 µg/mL; TGI [13]: > 150 µg/mL; GI50 [14]: 36.5 µg/mL; TGI [14]: > 150 µg/mL; outcome [15]: inactive; GI50 [16]: > 150 µg/mL; TGI [16]: > 150 µg/mL; GI50 [17]: 45.3 µg/mL; TGI [17]: 88.3 µg/mL; GI50 [18]: 86 µg/mL; TGI [18]: > 150 µg/mL; GI50 [19]: 115 µg/mL; TGI [19]: > 150 µg/mL; GI50 [20]: 40.2 µg/mL; TGI [20]: > 150 µg/mL; GI50 [21]: 37.6 µg/mL; TGI [21]: > 150 µg/mL; outcome [22]: inactive; GI50 [23]: 66.5 µg/mL; TGI [23]: > 150 µg/mL; outcome [24]: inactive; GI50 [25]: 23.8 µg/mL; TGI [25]: 78.2 µg/mL; GI50 [26]: 36.9 µg/mL; TGI [26]: > 150 µg/mL; GI50 [27]: 149 µg/mL; TGI [27]: > 150 µg/mL; GI50 [28]: 33 µg/mL; TGI [28]: > 150 µg/mL; GI50 [29]: 29 µg/mL; TGI [29]: > 150 µg/mL; GI50 [30]: 15.3 µg/mL; TGI [30]: 143 µg/mL; GI50 [31]: 69.5 µg/mL; TGI [31]: > 150 µg/mL; GI50 [32]: 4.23 µg/mL; TGI [32]: 69.5 µg/mL; GI50 [33]: 48.1 µg/mL; TGI [33]: > 150 µg/mL; GI50 [34]: > 150 µg/mL; TGI [34]: > 150 µg/mL; GI50 [35]: > 150 µg/mL; TGI [35]: > 150 µg/mL; GI50 [36]: 65.7 µg/mL; TGI [36]: > 150 µg/mL; GI50 [37]: 17.8 µg/mL; TGI [37]: > 150 µg/mL; GI50 [38]: 8.22 µg/mL; TGI [38]: > 150 µg/mL; GI50 [39]: 47.6 µg/mL; TGI [39]: > 150 µg/mL; GI50 [40]: > 150 µg/mL; TGI [40]: > 150 µg/mL; GI50 [41]: 50.1 µg/mL; TGI [41]: > 150 µg/mL; GI50 [42]: > 150 µg/mL; TGI [42]: > 150 µg/mL; GI50 [43]: 29.4 µg/mL; TGI [43]: > 150 µg/mL; GI50 [44]: 75.8 µg/mL; TGI [44]: > 150 µg/mL; GI50 [45]: > 150 µg/mL; TGI [45]: > 150 µg/mL; GI50 [46]: > 150 µg/mL; TGI [46]: > 150 µg/mL; GI50 [47]: 55.2 µg/mL; TGI [47]: > 150 µg/mL; GI50 [48]: > 150 µg/mL; TGI [48]: > 150 µg/mL; GI50 [49]: 124 µg/mL; TGI [49]: > 150 µg/mL; GI50 [50]: 114 µg/mL; TGI [50]: > 150 µg/mL; GI50 [51]: > 150 µg/mL; TGI [51]: > 150 µg/mL; GI50 [52]: > 150 µg/mL; TGI [52]: > 150 µg/mL; GI50 [53]: 40.5 µg/mL; TGI [53]: > 150 µg/mL; GI50 [54]: 8.32 µg/mL; TGI [54]: > 150 µg/mL; GI50 [55]: 125 µg/mL; TGI [55]: > 150 µg/mL; outcome [56]: inactive
